What was measured:
[1] = test system: S. aureus strain Newman; assay: Survival of vaccinated or mock-injected mice after challenge with a lethal dose of live S. aureus; format: in vivo, CD1 mice
Description: Four groups of 47 to 48 CD1 mice were treated as follows: CD1 mice were immunized twice via intraperitoneal injection two weeks apart (on day 0 and day 14), and each mouse received 200 μl of (mock-)vaccine. Groups 1 (Alum-Nam) and 2 (Alum) were mock-injected with alum (saline plus 2 mg/ml aluminium-hydroxide), groups 3 (Combo-NAM) and 4 (Combo only) were immunised with the S. aureus combination vaccine of Example 1. Groups 1 (Alum-Nam) and 3 (Combo-NAM) received 250 mg/kg NAM orally one day before and one day after challenge with a lethal dose of live S. aureus.
On day 24 (i.e. 10 days after the second vaccination), the immunised animals of groups 1-4 were challenged by intraperitoneal injection of a bacterial suspension of S. aureus strain Newman (approximately 2 to 5×10^8 CFU). Cultures of S. aureus were centrifuged, washed twice and diluted in PBS before challenge. Survival of the mice was monitored over a 15-day period post infection.
Survival rates were analysed by Mann-Whitney U-test. Mice were daily monitored and euthanized according to humane endpoints, in agreement with Novartis Animal Welfare Policies.

[2] = test system: EsxAB; assay: Antibody titre at day 23 by Luminex assay; format: in vivo, mice; settings: day 23 after first vaccination
Description: (§1) At day 23 after the first vaccination with the S. aureus combination vaccine (i.e. one day prior to the challenge with a lethal dose of S. aureus), the HlaH35L, EsxAB, Sta006 and Sta011 antibody titres for each group of mice described in Example 2 were measured by Luminex assay.

[3] = test system: HlaH35L; assay: Antibody titre at day 23 by Luminex assay; format: in vivo, mice; settings: day 23 after first vaccination
Description: as §1

[4] = test system: Sta011; assay: Antibody titre at day 23 by Luminex assay; format: in vivo, mice; settings: day 23 after first vaccination
Description: as §1

[5] = test system: Sta006; assay: Antibody titre at day 23 by Luminex assay; format: in vivo, mouse; settings: day 23 after first vaccination
Description: as §1

[6] = cited from earlier work
[7] = test system: S. aureus; settings: NAM daily beginning 24 hours prior to or 12 hours after infection with S. aureus; cited from earlier work
[8] = cited from earlier work; remark: listed apart in the source

Q: For `NC(=O)c1cccnc1` [NAM, nicotinamide], which “mice that survived until 15 days post infection” value ([1]; CD1 mice, (mock-)vaccine i.p. day 0 and 14, i.p. challenge day 24, NAM 250 mg/kg orally one day before and one day after challenge) is on record?
A: The value was 9%.

Q: What about the “mortality in comparison to mice which had received only the vaccine” value ([1]; mice immunized with S. aureus combination vaccine, NAM 250 mg/kg orally) of the same compound?
A: Its value is “significantly decreased”.

Q: What about the “protecting mice against a lethal infection with S. aureus” value ([1]; mice treated with alum alone, NAM 250 mg/kg orally) of the same compound?
A: Its value is “not effective”.

Q: And the “EsxAB antibody titre in serum, group 3 (vaccinated, NAM treatment) vs group 4 (vaccinated, no NAM treatment)” value [2]?
A: The value was “No significant difference”.

Q: And the “HlaH35L antibody titre in serum, group 3 (vaccinated, NAM treatment) vs group 4 (vaccinated, no NAM treatment)” value [3]?
A: Its value is “No significant difference”.

Q: And the “Sta011 antibody titre in serum, group 3 (vaccinated, NAM treatment) vs group 4 (vaccinated, no NAM treatment)” value [4]?
A: The value was “No significant difference”.

Q: What about the “Sta006 antibody titre in serum, group 3 (vaccinated, NAM treatment) vs group 4 (vaccinated, no NAM treatment)” value [5] of the same compound?
A: The value was “No significant difference”.

Q: And the “dose reported to be reversible hepatotoxic” value ([6]; animals and humans)?
A: Its value is greater than 3 g/day.

Q: What about the “side effects associated with treatment of human subjects” value ([6]; human subjects) of the same compound?
A: The value was “no significant side effects”.

Q: What about the “oncogenic / teratogenic in humans” value [6] of the same compound?
A: Its value is “neither oncogenic nor teratogenic”.

Q: What about the “immune killing of the bacteria” value [7] of the same compound?
A: Its value is “dramatically enhances”.

Q: With `Nc1cccc2c1CN(C1CCC(=O)NC1=O)C2=O` (centres unmarked) [lenalidomide] as the compound, how does the “oncogenic / teratogenic in humans” value [6] read?
A: Its value is “potentially teratogenic”.

Q: What about the “bone marrow toxicity as adverse effect in patients” value [6] of the same compound?
A: Its value is “frequently observed”.

Q: Which results are given for `Nc1cccc2c1C(=O)N(C1CCC(=O)NC1=O)C2=O` (centres unmarked) [pomalidomide]?
A: oncogenic / teratogenic in humans [6]: potentially teratogenic; bone marrow toxicity as adverse effect in patients [6]: frequently observed

Q: For `N[C@H](CCC(=O)N[C@@H](Cc1c[nH]c2ccccc12)C(=O)O)C(=O)O` [γ-D-glutamyl-L-tryptophan], which “adverse effects on administration to human subjects” value ([8]; human, in vivo) is on record?
A: Its value is “without adverse effects”.

Q: What about the “clinical effect on oral mucositis” value ([8]; humans) of the same compound?
A: The value was “no clinical effect”.

Reference: patent US20150258190A1, “NICOTINAMIDE AS ADJUVANT” (NOVARTIS AG, priority 2012, published 2015)
